The results in this text go back to ChEMBL document CHEMBL3832761, “MMV Pathogen Box Bioactivity Data” (2017).

One assay relates to MRC5. As to the kind of experiment: MRC5 CC50 (uM) Cytotoxicity. In kind it is functional. As to conditions: Homo sapiens.
For assay [1], the system named is Trypanosoma brucei. In words: AntiTrypanosoma brucei activity T. b. brucei IC50 (uM). In kind it is functional, organism-based.
The subject of the next assay is Trypanosoma cruzi. In words: AntiTrypanosoma cruzi activity IC50 (uM). Format: functional, organism-based.
For assay [2], the system named is Trypanosoma brucei. As to the kind of experiment: AntiTrypanosoma brucei activity T. b. rhodesiense IC50 (uM). Format: functional, organism-based.
The nature of assay [3]: PMM CC50 (uM) Cytotoxicity. In kind it is functional. As to conditions: Macrophage.
The next assay deals with Leishmania infantum. In words: AntiLeishmania activity L. infantum (macrophages) IC50 (uM). In kind it is functional, organism-based.
The test system of assay [4] is HepG2. As to the kind of experiment: Cytotoxicity data HepG2 CC20 (uM). Format: functional.
Assay [5] concerns Plasmodium falciparum. As to the kind of experiment: Antimalarial activity: Asexual Blood Stage Plasmodium falciparum 3D7 IC50 (uM). Format: functional, organism-based.
Another assay has as its system Plasmodium berghei. In words: Antimalarial activity: Liver Stage Plasmodium berghei sporozoite Luciferase assay: inhibition at 10 uM (%). Format: functional.
Assay [6] deals with HepG2. As to the kind of experiment: HepG2 inhibition at 10 uM (%) Cytotoxicity. Format: functional. As to conditions: Homo sapiens.
Assay [7] concerns Plasmodium falciparum. In words: Antimalarial activity: Asexual Blood Stage Plasmodium falciparum W2 IC50 (uM). Format: functional, organism-based.
For assay [8], the system named is Plasmodium falciparum. In words: Antimalarial activity: Gametocytes Plasmodium falciparum NF54 Gametocytes Stage V: inhibition at 10 uM (%). Format: functional.
For assay [9], the system named is Plasmodium falciparum. As to the kind of experiment: Antimalarial activity: Asexual Blood Stage Plasmodium falciparum Dd2 IC50 (uM). In kind it is functional, organism-based.

Each structure is given as a SMILES string.

With `CCN(CC)S(=O)(=O)c1ccc(C(=O)Nc2cc(C)nn2-c2nc(C)c(C)c(=O)[nH]2)cc1`, the CC50 – broadly, the concentration giving 50% cytotoxicity – in the assay on MRC5 was 6600 nM; in assay [3], > 64000 nM. Moreover, the IC50 – broadly, the concentration that inhibits the measured activity by half – amounted to 5300 nM with Trypanosoma brucei [1], 1960 nM in the assay with Trypanosoma cruzi, 1700 nM in the assay with Trypanosoma brucei [2] and 6870 nM in the assay on Leishmania infantum.
Consider `O=C(NCc1nnc2n1CCCCC2)c1ccc(-c2ccc(F)cc2)o1`, for which the CC50 (in the assay with MRC5; in assay [3]) was > 64000 nM in each case. For the same compound, the IC50 in the assay with Trypanosoma brucei [1] was 100 nM; in the assay with Trypanosoma cruzi, 2070 nM; in the assay on Trypanosoma brucei [2], 130 nM; with Leishmania infantum it was > 64000 nM.
In the assay with Trypanosoma brucei [1], `COc1ccc(C2=NN(C3CCCCCC3)C(=O)[C@@H]3CC=CC[C@H]23)cc1OCCCCOc1ccc(-c2nnn[nH]2)cc1` displayed an IC50 of 20 nM.
Take `Cc1noc(C)c1COc1cccc(C(=O)N=c2[nH]cccc2C)c1`: the CC50 (in the assay with MRC5; in [3]) was > 64000 nM throughout. Further, the IC50 is 2070 nM in the assay on Trypanosoma brucei [1], > 64000 nM in the assay on Trypanosoma cruzi, 650 nM in the assay with Trypanosoma brucei [2] and > 64000 nM in the assay with Leishmania infantum.
Turning to `O=C(NCCc1ccn(-c2ccccc2)n1)C1CCCCC1`, the CC50 (with MRC5; in [3]) was > 64000 nM each time. The IC50 was 150 nM in the assay with Trypanosoma brucei [1], 730 nM with Trypanosoma cruzi, < 130 nM with Trypanosoma brucei [2] and > 64000 nM with Leishmania infantum.
As for `CCOC(=O)c1noc(N)c1-c1ccccc1`, the CC50 (in the assay with MRC5; in assay [3]) was > 64000 nM in each case. Also, the IC50 in the assay on Trypanosoma brucei [1] was 1220 nM; in the assay on Trypanosoma cruzi it was > 64000 nM; in the assay with Trypanosoma brucei [2], 460 nM; in the assay on Leishmania infantum, > 64000 nM.
As for `O=C([C@@H](c1ccc(Cl)cc1)c1cccnc1)N1CCN(c2ccc(C(F)(F)F)cc2)CC1`, the midpoint of inhibition in the assay on Trypanosoma cruzi, the IC50, lay at 10 nM. Besides, the CC20 in the assay on HepG2 [4] came out at 19000 nM.
Consider `CNc1cc(C)nc(C2CN(C(=O)c3n[nH]c4ccccc34)CCO2)c1` (centres undefined), for which the CC50 in the assay with MRC5 was > 64000 nM. For the same compound, the IC50 in the assay on Trypanosoma cruzi worked out at 3890 nM.
With `C[C@H](c1ccc2c(c1)CCCC2)N(C)c1ncc2c(N)nc(N)nc2n1`, the CC50 with MRC5 amounted to 7100 nM; in [3], 8000 nM. The same compound came in with an IC50 in the assay with Leishmania infantum of 470 nM.
`CNC(=O)C1Cc2ccccc2N1C(=O)Cc1ccc(F)cc1` (centres undefined): the cytotoxic concentration (CC50) (with MRC5; in assay [3]) was > 64000 nM each time. For the same compound, the IC50 is 490 nM in the assay on Trypanosoma brucei [1], > 64000 nM in the assay on Trypanosoma cruzi, 380 nM with Trypanosoma brucei [2] and > 64000 nM in the assay on Leishmania infantum.
Turning to `Cc1nn2c(O)c3c(nc2c1-c1ccc(F)cc1)CCCC3`, the CC50 (in the assay with MRC5; in assay [3]) was > 64000 nM each time. In addition, the IC50 with Trypanosoma brucei [1] is 1940 nM; in the assay with Trypanosoma cruzi, 2210 nM; in the assay with Trypanosoma brucei [2], 480 nM; in the assay with Leishmania infantum, 50400 nM.
Consider `CC(=O)Nc1ccc(-c2noc(CC3CCCN(Cc4cccc(F)c4C)C3)n2)cc1` (centres undefined), for which the CC50 in the assay on MRC5 is 29400 nM; in [3] it was > 64000 nM. Moreover, the IC50 was 32300 nM in the assay on Trypanosoma brucei [1], 2800 nM in the assay with Trypanosoma cruzi, 25100 nM in the assay with Trypanosoma brucei [2] and 1590 nM in the assay with Leishmania infantum.
With `CNCCC(Oc1ccc(C(F)(F)F)cc1)c1ccccc1` (centres undefined) [FLUOXETINE], the CC50 is 11400 nM in the assay with MRC5 and 16000 nM in assay [3]. In the assay with HepG2 [4], this compound had a CC20 of 8970 nM.
With `CO/C=C(/C(=O)OC)c1ccccc1Oc1cc(Oc2ccccc2C#N)ncn1` [AZOXYSTROBIN], the figures for the IC50 in the assay on Plasmodium falciparum [5], in the assay on Plasmodium falciparum [7] and with Plasmodium falciparum [9] were 50 nM, 30 nM and 90 nM, respectively. For the same compound, in the assay with MRC5, the CC50 is > 28000 nM. Besides, the figures for the Inhibition in the assay on Plasmodium berghei and with Plasmodium falciparum [8] were 97% and 32.5%, respectively. For the same compound, the inhibition (commonly the percentage by which the read-out fell short of the control) at 10 µM with HepG2 [6] was 37%.
As for `CCC(=O)Nc1ccccc1C(=O)Nc1ccccn1`, the CC50 (with MRC5; in [3]) was > 64000 nM in each case. For the same compound, the IC50 with Trypanosoma brucei [1] is 2460 nM; in the assay with Trypanosoma cruzi, > 64000 nM; in the assay with Trypanosoma brucei [2], 1310 nM; in the assay on Leishmania infantum, > 64000 nM.
With `FC(F)(F)c1ccc(N(c2cccnc2)C2CCN(c3ccc(C(F)(F)F)cn3)CC2)cc1`, in the assay with Trypanosoma cruzi, it took 10 nM to reach half-maximal inhibition (IC50). Also, the CC20 with HepG2 [4] was 25800 nM.
As for `CC1CCCCN1C(=O)NCCc1coc(-c2ccc(F)cc2)n1` (centres undefined), the CC50 (in the assay on MRC5; in [3]) was > 64000 nM in each case. The IC50 with Trypanosoma brucei [1] was 130 nM; with Trypanosoma cruzi, 480 nM; in the assay with Trypanosoma brucei [2], 110 nM; in the assay on Leishmania infantum, > 64000 nM.
On to `Cc1ccc(S(=O)(=O)Nc2ccc(CN3CCN(C(=O)c4cccc(C#N)c4)CC3)cc2)cc1`, for which the CC50 (in the assay with MRC5; in assay [3]) was > 64000 nM in each case. The IC50 in the assay with Trypanosoma brucei [1] was determined as 140 nM; in the assay with Trypanosoma cruzi, 1200 nM; with Trypanosoma brucei [2], 120 nM; with Leishmania infantum, 32000 nM.
In the case of `COc1ccc(Oc2ccc([C@@H](C)N(C)c3ncc4c(N)nc(N)nc4n3)cc2)cc1`, the figures for the half-maximal cytotoxic concentration (CC50) (in the assay on MRC5; in assay [3]) were 5400 nM and 4000 nM, respectively. Moreover, the midpoint of inhibition with Leishmania infantum, the IC50, lay at 30 nM.
Take `CN1CCCN(C(c2ccccc2)c2ccc(Cl)cc2)CC1` (centres undefined) [HOMOCHLORCYCLIZINE]: the CC50 in the assay on MRC5 turned out to be 31800 nM; in assay [3], 48000 nM. The IC50 in the assay on Trypanosoma brucei [1] turned out to be 4640 nM; with Trypanosoma cruzi it was 9440 nM; in the assay on Trypanosoma brucei [2] it was 1940 nM; with Leishmania infantum, 36300 nM.
As to `CS(=O)(=O)c1ccccc1C(=O)N(Cc1ccccc1)c1ccccc1`, the CC50 (in the assay with MRC5; in assay [3]) was > 64000 nM throughout. Also, the IC50 with Trypanosoma brucei [1] is 560 nM; with Trypanosoma cruzi, 35400 nM; in the assay on Trypanosoma brucei [2] it was 400 nM; with Leishmania infantum it was > 64000 nM.
Take `NCCN(C(=O)c1ccc(Cl)cc1Cl)c1ccc(OCc2ccc(Cl)cc2)cc1`: the values for the cytotoxic concentration (CC50) (in the assay on MRC5; in [3]) were 4000 nM and 1000 nM, respectively. The IC50 in the assay on Trypanosoma brucei [1] was < 130 nM; with Trypanosoma cruzi, 620 nM; with Trypanosoma brucei [2] it was < 130 nM; with Leishmania infantum, 630 nM.
`Cc1ccc2cc(C3NC(=O)c4ccccc4N3)c(Cl)nc2c1` (centres undefined): the IC50 in the assay on Plasmodium falciparum [5] came out at 1660 nM; with Plasmodium falciparum [7], 990 nM; in the assay on Plasmodium falciparum [9], 2320 nM. Further, the Inhibition (commonly the share of the control response that was lost under treatment) in the assay on Plasmodium berghei was found to be 37%; in the assay on Plasmodium falciparum [8], 0%. Besides, testing at 10 µM with HepG2 [6] gave an inhibition of 2%. Besides, the CC20 in the assay with HepG2 [4] was >80000 nM.
Take `CC(c1cc(Cl)cc(Cl)c1)N(C)c1ncc2c(N)nc(N)nc2n1` (centres undefined): the values for the CC50 (with MRC5; in assay [3]) were 5900 nM and > 32000 nM, respectively. The same compound displayed an IC50 in the assay on Leishmania infantum of 540 nM.
Regarding `COc1ccc(C2=NN(C3CCCCCC3)C(=O)C2(C)C)cc1OCCCCOc1ccc(-c2nn[nH]n2)cc1`, the IC50 with Trypanosoma brucei [1] turned out to be 790 nM.
Turning to `O=S(=O)(c1ccc(Cl)cc1)N1CCN(C(=S)NCc2ccco2)CC1`, the figures for the IC50 with Plasmodium falciparum [5], in the assay on Plasmodium falciparum [7] and with Plasmodium falciparum [9] were 1200 nM, 1250 nM and 760 nM, respectively. Further, the results for the Inhibition in the assay on Plasmodium berghei and in the assay with Plasmodium falciparum [8] were 23% and 32%, respectively. The compound also showed an inhibition at 10 µM with HepG2 [6] of 0%. Further, the CC20 in the assay on HepG2 [4] came to 28300 nM.
Turning to `O=C(c1ccc(NCCO)cc1)C1C[C@H]1c1ccc(Cl)cc1` (some centres undefined), the IC50 with Plasmodium falciparum [5] turned out to be 660 nM; with Plasmodium falciparum [7], 2260 nM; in the assay with Plasmodium falciparum [9], 1630 nM. For the same compound, the Inhibition worked out at 44% in the assay with Plasmodium berghei and 20% in the assay with Plasmodium falciparum [8]. Besides, the inhibition at 10 µM in the assay on HepG2 [6] is 5%. This compound also yielded a CC20 in the assay on HepG2 [4] of 12800 nM.
Take `Cc1cc(Nc2ccncc2)n2nc(C)c(-c3ccccc3Cl)c2n1`: the IC50 in the assay on Plasmodium falciparum [5] came to 630 nM; with Plasmodium falciparum [7], 490 nM; with Plasmodium falciparum [9] it was 690 nM. For the same compound, the Inhibition with Plasmodium berghei amounted to 35%; with Plasmodium falciparum [8], 46%. This compound displayed an inhibition at 10 µM in the assay with HepG2 [6] of 3%. Also, the CC20 with HepG2 [4] was 80000 nM.
